The source of these data is patent publication US10065934B2, “Substituted urea derivatives and pharmaceutical uses thereof” (SUNSHINE LAKE PHARMA CO., LTD., priority 2014, dated 2018).

pIC50: −log10 of the molar value. Like-named read-outs stand apart in the source and are kept apart here.

One series addresses T1, FLT3 kinase (Homo sapiens, UniProt P36888).
T1 sequence (P36888 27-993): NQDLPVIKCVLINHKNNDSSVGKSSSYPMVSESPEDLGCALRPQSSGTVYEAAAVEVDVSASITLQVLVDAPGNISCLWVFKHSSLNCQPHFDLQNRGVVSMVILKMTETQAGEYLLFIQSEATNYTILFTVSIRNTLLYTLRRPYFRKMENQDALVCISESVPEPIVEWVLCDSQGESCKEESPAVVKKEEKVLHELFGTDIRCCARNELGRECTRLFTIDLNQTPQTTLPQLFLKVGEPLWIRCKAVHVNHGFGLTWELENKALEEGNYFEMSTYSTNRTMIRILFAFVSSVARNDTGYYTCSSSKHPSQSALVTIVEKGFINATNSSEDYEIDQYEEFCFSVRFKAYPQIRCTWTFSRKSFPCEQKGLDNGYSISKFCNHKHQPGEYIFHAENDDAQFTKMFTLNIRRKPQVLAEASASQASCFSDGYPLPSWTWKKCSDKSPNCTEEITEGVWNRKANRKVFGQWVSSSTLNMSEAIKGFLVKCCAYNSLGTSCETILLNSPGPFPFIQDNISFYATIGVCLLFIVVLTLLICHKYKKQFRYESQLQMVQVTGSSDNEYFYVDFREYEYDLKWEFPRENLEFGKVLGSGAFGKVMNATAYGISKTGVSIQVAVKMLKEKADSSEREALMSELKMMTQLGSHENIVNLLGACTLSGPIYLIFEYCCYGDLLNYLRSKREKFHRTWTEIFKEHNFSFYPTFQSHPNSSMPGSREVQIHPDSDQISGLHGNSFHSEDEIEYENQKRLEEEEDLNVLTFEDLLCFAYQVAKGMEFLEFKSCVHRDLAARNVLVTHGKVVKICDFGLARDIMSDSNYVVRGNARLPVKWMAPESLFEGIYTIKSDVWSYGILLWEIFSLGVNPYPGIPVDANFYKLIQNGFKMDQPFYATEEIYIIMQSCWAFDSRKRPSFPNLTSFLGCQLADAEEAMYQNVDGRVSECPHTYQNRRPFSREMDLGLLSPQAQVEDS
Put plainly: In vitro enzymatic inhibitory activity (kinase reaction, FAM-labeled peptide). Format: biochemical. The note with it: in vitro enzymatic inhibition.

A short description of series [1]: Evaluation of pharmacokinetic activity in male SD rats (iv and oral). The format is in vivo. Here is the method: 1. Preparation of the Test Compound Solutions
The test compound solutions were prepared using appropriate amounts of 5% DMSO, 5% KolliphorHS15 and 90% Saline to dissolve each compound completely.
140-190 g male SD rats were randomly divided into two groups. One group was administered through intravenous drug delivery with the dosage of 1.0 or 2.0 mg/kg, and the other group was administered by oral with the dosage of 5.0 mg/kg. For intravenous administration, caudal vein blood samples at the time points of 0.0833, 0.25, 0.5, 1.0, 2.0, 4.0, 6.0, 8.0 and 24 h were collected after drug administration (the time point of drug administration was set as 0 h); and for oral administration, caudal vein blood samples at the time points of 0.25, 0.5, 1.0, 2.0, 4.0, 6.0, 8.0 and 24 h were collected after drug administration (the time point of drug administration was set as 0 h). Appropriate range of standard curve was established according to the sample concentration, and the test compound concentrations in plasma sample were measured by LC-MS/MS analysis. Pharmacokinetic parameters were calculated by non-compartmental method using WinNonLin 6.3 software based on drug concentration-time curves.

Another series deals with MV-4-11 cell. Kind of series: In vitro cytology inhibitory activity (MV-4-11 cell proliferation, cell viability luminescence). The format is cell-based. The note with it: Homo sapiens, MV4-11; MV-4-11 cells, 72 h incubation. Here is the method: Cell assay condition was shown below:
a. A complete medium was prepared and mixed well. b. Cell was recovered, and cell lines of between about two generations in good condition of growth were selected. c. The cell culture flasks were removed from the incubator, and the labeled cell name on the bottles, culture medium type and cell algebra were checked. d. The cell suspension was pipette into a centrifuge tube, and centrifuged at 800-1000 rpm for 3-5 minutes. e. Cell supernatant of the centrifuge tube was aspirated. f. Appropriate volume of culture medium was added into the centrifuge tube, and the cells were resuspended by gentle pipetting uniform. g. Vi-Cell XR cytometer was used for count. h. The cell suspension was adjusted to the appropriate concentration. i. The cell suspension was added to the bottom wall of the white 96-well plate, 100 microliters/well. Cells name, kind of board density and date were detailed labeled, and the culture plate was placed in CO2 incubator overnight.
2. Preparation and Addition of the Test Compounds
i) Preparation of test compound plates by diluting to 10 concentrations with DMSO: first, the test compound stock solution was prepared by dissolving a weighed compound in DMSO to a concentration of 10 mM, and then diluted to the concentration of 4 mM, which was then diluted to the concentration of 0.4 mM used as the highest concentration for testing with DMSO. The highest concentration was sequentially followed by 3-fold dilution for a total of 10 concentrations. Staurosporine was the positive control drug. ii) Addition of test compounds: a. 0.5 μL of test compound prepared above in compound plate was added into the cell culture plate that had been incubated overnight. Then the culture plate was incubated in an incubator at 37° C. for 72 hours.
3. Detection and Analysis
a. 72 hours after the compound treatment, cells was observed under an inverted microscope morphology, and cell growth state in DMSO control well was normal, there was no contamination. b. The cell culture plate was placed in equilibrium at room temperature for 30 minutes. c. The cell viability detection reagent at 100 μL/well was placed into culture plate. d. The mixture in culture plate was mixed two minutes in the vibration plate machine to induce cell lysis. e. 96-well plate was placed for 10 minutes at room temperature, making it stable luminescent signal. f. White base film was pasted on the bottom of the culture plate, and the plate was tested by using Flexstation3 (related to: light, integration time 500 ms). g. Experimental results were recorded and analyzed.

Consider `CC(C)(C)c1cc(NC(=O)Nc2ccc(C#Cc3ccc(OCCCN4CCOCC4)c(Cl)c3)cc2)no1` [Example 2, 1-(5-(tert-Butyl)isoxazol-3-yl)-3-(4-((3-chloro-4-(3-morpholinopropoxy)phenyl)ethynyl)phenyl) urea], for which the pIC50 at FLT3 kinase was 7.12.

In turn, `CC(C)(C)c1cc(NC(=O)Nc2ccc(C#Cc3ccc(OCCCN4C[C@@H]5OCCO[C@@H]5C4)cc3)cc2)no1` [Example 11, 1-(5-(tert-butyl)isoxazol-3-yl)-3-(4-((4-(3-((4aR,7aS)-tetrahydro-2H-[1,4]dioxino[2,3-c]pyrrol-6(3H)-yl)propoxy)phenyl)ethynyl)phenyl)urea] had a pIC50 against FLT3 kinase of 6.77.

With `CC(C)(C)c1cc(NC(=O)Nc2ccc(C#Cc3ccc(OCCN4C[C@@H]5OCCO[C@@H]5C4)cc3)cc2)no1` [Example 24, 1-(5-(tert-Butyl)isoxazol-3-yl)-3-(4-((4-(2-((4aR,7aS)-tetrahydro-2H-[1,4]dioxino[2,3-c]pyrro 1-6(3H)-yl)ethoxy)phenyl)ethynyl)phenyl)urea], in series [1] (po, 5 mg/kg), the “AUClast” value turned out to be 6770 ng·h/mL, the maximum concentration (Cmax) is 862 ng/mL and the “T1/2” value turned out to be 3.9 h. Moreover, in series [1] (rat, plasma, iv, 1 mg/kg), the AUC(0-inf) came out at 2160 ng·h/mL, the exposure AUC(0-t) is 2130 ng·h/mL, the Tmax came to 0.083 h and the half-life was 271 min. The Cmax in series [1] (rat, plasma, iv, 1 mg/kg, read-out: Cmax) came to 1340 ng/mL. For the same molecule, in series [1] (rat, plasma, iv, 1 mg/kg, read-out: Vss), the Vd turned out to be 1.69 L/kg. This molecule yielded a bioavailability in series [1] (rat, plasma, po 5 mg/kg vs iv 1 or 2 mg/kg) of 63.6%. In addition, in series [1] (rat, plasma, po, 5 mg/kg), the AUC(0-inf) came to 6870 ng·h/mL and the time to peak (Tmax) was 4 h. The negative-log IC50 (pIC50) at FLT3 kinase is 6.80.

As for `COc1cc(C#Cc2ccc(NC(=O)Nc3cc(C(C)(C)C)on3)cc2)ccc1OCCCN1CCOCC1` [Example 20, 1-(5-(tert-Butyl)isoxazol-3-yl)-3-(4-((3-methoxy-4-(3-morpholinopropoxy)phenyl)ethynyl)phenyl)urea], the negative logarithm of the IC50 (pIC50) against FLT3 kinase is 6.96.

As to `CN1CCN(CCCOc2ccc(C#Cc3ccc(NC(=O)Nc4cc(C(C)(C)C)on4)cc3)cc2)CC1` [Example 13, 1-(5-(tert-Butyl)isoxazol-3-yl)-3-(4-((4-(3-(4-methylpiperazin-1-yl)propoxy)phenyl)ethynyl)phenyl)urea], the pIC50 in the series on MV-4-11 cell was 8.62; at FLT3 kinase, 7.64.

In turn, `CC(C)(C)c1cc(NC(=O)Nc2ccc(C#Cc3ccc(OCCCN4CCOCC4)c(C(F)(F)F)c3)cc2)no1` [Example 3, 1-(5-(tert-Butyl)isoxazol-3-yl)-3-(4-((4-(3-morpholinopropoxy)-3-(trifluoromethyl)phenyl)ethynyl)phenyl)urea] had a pIC50 against FLT3 kinase of 7.21.

On to `CC(C)(C)c1cc(NC(=O)Nc2ccc(C#Cc3ccc(OCCN4CCOCC4)cc3)cc2)no1` [Example 25, 1-(5-(tert-Butyl)isoxazol-3-yl)-3-(4-((4-(2-morpholinoethoxy)phenyl)ethynyl)phenyl)urea], for which, at FLT3 kinase, the negative logarithm of the IC50 (pIC50) was 7.08.

The molecule `CC(C)(C)c1cc(NC(=O)Nc2ccc(C#Cc3ccc(OCCCN4CCOCC4)c(F)c3)cc2)no1` [Example 1, 1-(5-(tert-Butyl)isoxazol-3-yl)-3-(4-((3-fluoro-4-(3-morpholinopropoxy)phenyl)ethynyl)phenyl)urea] had a pIC50 at FLT3 kinase of 6.94.

The molecule `CC(C)(C)c1cc(NC(=O)Nc2ccc(C#Cc3ccc(OCCCN4CCOCC4)cc3Cl)cc2)no1` [Example 5, 1-(5-(tert-Butyl)isoxazol-3-yl)-3-(4-((2-chloro-4-(3-morpholinopropoxy)phenyl)ethynyl)phenyl)urea] had a pIC50 against FLT3 kinase of 6.72.

In the series on MV-4-11 cell, `CC(C)(C)c1cc(NC(=O)Nc2ccc(C#Cc3cnc4ccc(OCCCN5CCOCC5)nn34)cc2)no1` [Example 7, 1-(5-(tert-Butyl)isoxazol-3-yl)-3-(4-((6-(3-morpholinopropoxy)imidazo[1,2-b]pyridazin-3-yl)ethynyl)phenyl)urea] showed a pIC50 of 8.49.

As to `CN(C)C1CCN(CCOc2ccc(C#Cc3ccc(NC(=O)Nc4cc(C(C)(C)C)on4)cc3)cc2)CC1` [Example 14, 1-(5-(tert-Butyl)isoxazol-3-yl)-3-(4-((4-(2-(4-(dimethylamino)piperidin-1-yl)ethoxy)phenyl)ethynyl)phenyl)urea], the pIC50 in the series with MV-4-11 cell was 7.94; against FLT3 kinase, 7.14.

Regarding `CC(C)(C)c1cc(NC(=O)Nc2ccc(C#Cc3ccc(OCCCN4CCC5(COC5)C4)cc3F)cc2)no1` [Example 8, 1-(4-((4-(3-(2-Oxa-6-azaspiro[3.4]octan-6-yl)propoxy)-2-fluorophenyl)ethynyl)phenyl)-3-(5-(tert-butyl)isoxazol-3-yl)urea], the negative logarithm of the IC50 (pIC50) was 8.47 with MV-4-11 cell and 7.21 against FLT3 kinase.

In turn, `CC(C)(C)c1cc(NC(=O)Nc2ccc(C#Cc3ccc(OCCCN4CCOCC4)cc3)cc2F)no1` [Example 81, 1-(5-(tert-Butyl)isoxazol-3-yl)-3-(2-fluoro-4-((4-(3-morpholinopropoxy)phenyl)ethynyl)phenyl)urea] had a negative-log IC50 (pIC50) in the series on MV-4-11 cell of 8.33.

Turning to `CN1CCN(CCOc2ccc(C#Cc3ccc(NC(=O)Nc4cc(C(C)(C)C)on4)cc3)cc2)CC1` [Example 12, 1-(5-(tert-Butyl)isoxazol-3-yl)-3-(4-((4-(2-(4-methylpiperazin-1-yl)ethoxy)phenyl)ethynyl)phenyl)urea], the negative-log IC50 (pIC50) was 8.80 in the series on MV-4-11 cell and 7.55 against FLT3 kinase.

`CC(C)(C)c1cc(NC(=O)Nc2ccc(C#Cc3cnn4c(OCCCN5CCOCC5)ccnc34)cc2)no1` [Example 15, 1-(5-(tert-Butyl)isoxazol-3-yl)-3-(4-((7-(3-morpholinopropoxy)pyrazolo[1,5-a]pyrimidin-3-yl)ethynyl)phenyl)urea] had a pIC50 against FLT3 kinase of 6.99.

In the case of `CC(C)(C)c1cc(NC(=O)Nc2ccc(C#Cc3cnn4ccc(OCCCN5CCOCC5)nc34)cc2)no1` [Example 6, 1-(5-(tert-Butyl)isoxazol-3-yl)-3-(4-((5-(3-morpholinopropoxy)pyrazolo[1,5-a]pyrimidin-3-yl)ethynyl)phenyl)urea], the results for the negative-log IC50 (pIC50) with MV-4-11 cell and against FLT3 kinase were 8.51 and 7.03, respectively.

`CC(C)(C)c1cc(NC(=O)Nc2ccc(C#Cc3ccc(OCCCN4CCOCC4)cc3)cc2O)no1` [Example 87, 1-(5-(tert-butyl)isoxazol-3-yl)-3-(2-hydroxy-4-((4-(3-morpholinopropoxy)phenyl)ethynyl)phenyl)urea] had a pIC50 in the series with MV-4-11 cell of 7.59.

What is called pIC50 is the IC50 on a negative log10 scale, so that one unit is a factor of ten. As usually defined, the Cmax is the peak of the concentration-time curve. For orientation: AUC(0-inf) means the area under the concentration-time curve extrapolated to infinity. Low readings indicate low exposure, high ones high exposure. As usually defined, the AUC(0-t) is exposure summed from dosing to a finite time, without extrapolation to infinity. Read a low AUC(0-t) as less exposure. A word on the Tmax: it is the time at which the peak concentration occurs. The half-life is the time needed for the level to fall by half in the phase considered. What is called bioavailability is dose-corrected exposure relative to a reference, in per cent. Lower therefore signals little systemic uptake.
